# From patent publication US9783859B2, “Method of screening and quantifying various enzymatic activities using artificial genetic circuits” (KOREA RESEARCH INSTITUTE OF BIOSCIENCE AND BIOTECHNOLOGY, priority 2009, dated 2017)
# Read-outs that look alike come from different tables or passages of the source.
# Experiments:
# [1] = tested on: Pseudomonas sp. methyl parathion hydrolase (MPH); assay: sensing of methyl parathion hydrolase activity with pGESS-EGFP (III); assay type: cell-based; details: 0.1 mM substrate, GFP emission at 510 nm
# Description: The cells were lysed, and the supernatant was analyzed with a fluorescence spectrometer (Varian, Australia), thereby examining whether the emission wavelength of GFP was detected at 510 nm.
# [2] = target: T1, C. freundii tyrosine-phenol lyase (TPL) (Citrobacter freundii, UniProt P31013); assay: sensing of tyrosine-phenol lyase activity with pGESS-EGFP (I); assay type: cell-based; details: 1 mM tyrosine, 10 μM PLP, 30° C. 20 hours
# T1 construct: expressed in transfected cells; host or cells: E. coli DH5α containing pGESS-EGFP (I), plasmid pEC-TPL
# T1 sequence (P31013 whole entry): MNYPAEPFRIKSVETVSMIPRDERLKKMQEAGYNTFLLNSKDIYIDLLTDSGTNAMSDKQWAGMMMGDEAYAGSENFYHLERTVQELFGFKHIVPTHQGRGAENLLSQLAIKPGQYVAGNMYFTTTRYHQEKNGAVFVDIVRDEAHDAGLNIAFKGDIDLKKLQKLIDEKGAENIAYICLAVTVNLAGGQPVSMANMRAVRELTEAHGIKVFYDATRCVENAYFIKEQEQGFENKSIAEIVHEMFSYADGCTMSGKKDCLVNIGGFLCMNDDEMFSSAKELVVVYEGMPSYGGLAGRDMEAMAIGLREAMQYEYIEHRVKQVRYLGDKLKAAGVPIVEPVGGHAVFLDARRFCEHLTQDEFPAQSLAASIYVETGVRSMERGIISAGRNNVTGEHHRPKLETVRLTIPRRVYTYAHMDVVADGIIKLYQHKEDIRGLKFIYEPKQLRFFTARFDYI
# Description: The GESS genetic circuit of the present invention can also be used to sense a reaction (phenol-lyase) of liberating phenol from substrates (Ph-C—(R)) comprising carbon coupled to phenol. In the present invention, whether the GESS genetic circuit senses the activity of TPL (enzyme degrading tyrosine into phenol, pyruvic acid and ammonia) was examined in order to verify the effectiveness of TPL. Specifically, C. freundii TPL gene was cloned into pEC11a (obtained by replacing the on of pET11a(+) with ACYC ori) to prepare pEC-TPL which was then introduced into E. coli DH5α containing pGESS-EGFP (I).
# [3] = tested on: phenol-sensing artificial genetic circuit pGESS-EGFP(I) (dmpR); details: solid medium, 30° C. 36 hours, fluorescence microscope
# Description: In order to quantitatively analyze the function of the artificial genetic circuit (constructed in Example 1) to sense phenol, a single colony of recombinant E. coli BL21 containing pGESS-EGFP(I) was inoculated into LB liquid medium containing 50 μg/ml of ampicillin and was cultured with shaking overnight at 37° C.
# [4] = tested on: phenol-sensing artificial genetic circuit pGESS-EGFP(I) (dmpR)
# Description: The dependence of sensitivity of the artificial genetic circuit on the concentration of the inducer phenol was confirmed using a fluorescence spectrometer. For this purpose, a single colony of recombinant E. coli containing pGESS-EGFP(I) was inoculated into LB liquid medium supplemented with 50 μg/ml of ampicillin and was cultured with shaking overnight at 37° C. The above pre-culture was inoculated into LB liquid medium containing 50 μg/ml of ampicillin and various concentrations (0.1-1000 μM) of phenol to a concentration of 1% (v/v) and was cultured with shaking at 30° C. for 20 hours. To analyze the intensity of fluorescence, the cells were disrupted, and the intensity of fluorescence in the supernatant was analyzed using a fluorescence spectrometer.
# [5] = tested on: genetic circuit pGESS-Cm(II)
# Description: (§1) Next, the genetic circuits (pGESS-Cm(II), pGESS-Tc(II), and pGESS-Km(II)) comprising the antibiotic resistance gene as the reporter were used to perform quantitative antibiotic resistance analysis. A single colony of E. coli JM109(DE3) containing each genetic circuit comprising chloramphenicol, tetracycline or kanamycin resistance gene as a reporter was inoculated into liquid medium containing 50 μg/ml of ampicillin and was cultured with shaking overnight at 37° C. The pre-culture was 10^6-fold diluted, and 100 μl of the dilution was plated on each of selective media and cultured overnight at 37° C. for 3 days. The number of colonies produced on the solid medium was counted, thereby performing the resistance test. 50 μg/ml of ampicillin and various concentrations (0, 10, 20 and 30 μg/ml) of each of selective antibiotics (chloramphenicol, tetracycline and kanamycin resistance) were added to each selective medium. Also, a transcriptional activator, that is, phenol, was added at a concentration of 1-1000 μM.
# [6] = tested on: genetic circuit pGESS-Km(II); details: phenol 1-1000 μM
# Description: as §1
# [7] = tested on: genetic circuit pGESS-Tc(II); details: phenol 1-1000 μM
# Description: as §1
# [8] = tested on: artificial genetic circuit pGESS-EGFP (I) (dmpR); assay type: cell-based, E. coli DH5α; details: 0.1-1000 μM tested, overnight at 30° C., LB medium
# Description: The signals of the artificial genetic circuit for phenolic compounds were quantitatively analyzed. Specifically, a single colony of E. coli DH5α containing pGESS-EGFP (I) was inoculated into LB liquid medium containing 50 μg/ml of ampicillin and was cultured with shaking overnight at 37° C. The culture was inoculated into LB medium containing 50 μg/ml of ampicillin to a concentration of 1% (v/v), and 0.1-1000 μM of each of phenol, o-chlorophenol, m-chlorophenol, o-nitrophenol, catechol and resorcinol was added thereto and cultured with shaking overnight at 30° C. The cells were lysed, and the supernatant was analyzed by a fluorescence spectrometer (Varian, Australia), thereby measuring the fluorescence of GFP at 510 nm.
# [9] = tested on: genetic circuit pGESS-EGFP (II)
# Description: In the present invention, in order to increase the ability of the genetic circuit to sense phenolic compounds, the reaction of the genetic circuit was performed using the optimal medium and carbon source selected in Example 5, and the cell growth step and the step of activating (analyzing) the genetic circuit were separated from each other, thereby attempting the optimization of the sense system. Specifically, the bacterial cells were made healthy using LB medium during growth, and the cells were recovered and the activity of the genetic circuit therein was analyzed in the M9 medium containing acetate as a carbon source.
# Specifically, a colony introduced with the genetic circuit was inoculated into LB medium and was cultured with shaking overnight at 37° C., and next day, the culture was inoculated into LB medium at a concentration of 1% (v/v) and was cultured with shaking at 37° C. When the cell growth (OD600/ml) reached about 2.5, the cultured cells were recovered and subjected to activation of the genetic circuit. For activation of the genetic circuit, the recovered bacterial cells were washed once with M9 medium, after they were suspended in M9 (acetate) media containing various concentrations of phenols and were cultured with shaking at 30° C. for 16 hours. Each medium was supplemented with 50 μg/ml of ampicillin as a selective marker. The intensity of fluorescence in cells induced by each concentration of phenol was measured using FACSAria system (Becton Dickinson, US). As a detector, an FSC, SSC, FL1-H (excitation=488 nm, emission=530/30 nm) detector was set, and data obtained by 50,000 sample cells were analyzed using FACSDiVa (Becton Dickinson, USA) (see FIG. 19 C).
# [10] = tested on: genetic circuit pGESS-EGFP (III), mutant dmpR (E135K); assay type: cell-based, E. coli
# Description: The colony introduced with the pGESS-EGFP (II) or pGESS-EGFP (III) genetic circuit was inoculated into LB medium and was cultured with shaking at 37° C. Next day, the culture was inoculated into LB medium to a concentration of 1% (v/v) and was cultured with shaking at 37° C. When the cell growth (OD600/ml) reached about 2.5, the cultured cells were recovered and subjected to activation of the genetic circuit. For activation of the genetic circuit, the recovered bacterial cells were washed once with M9 medium, after which they were suspended in M9 (acetate) media containing various concentrations of phenol and were cultured with shaking. Each medium was supplemented with 50 μg/ml of ampicillin as a selection marker. The bacterial cell growth was predicted by measuring absorbance (OD600) using a UV/VIS spectrometer (Ultrospec 3000, Pharmacia Biotech, Sweden), and the fluorescence intensity was measured using a fluorescence plate reader (Multi-label reader, PerkinElmer, USA).
# Next, the measurement of sensitivities to 2-nitrophenol and 4-nitrophenol was performed. The measurement was performed in the same manner as above, and various concentrations of 2-nitrophenol and 4-nitrophenol in addition to phenol were added and allowed to react.
# [11] = enzymatic properties of novel alkaline phosphatase (pNPP hydrolysis, absorbance at 405 nm); assay type: biochemical; details: 15 minutes, at 80° C. or below
# Description: The optimum pH and temperature, thermal stability and substrate specificity of the selected alkaline phosphatase and the effect thereof on metal ions were examined. An enzymatic reaction was performed in the following manner. The enzymatic reaction was performed using a mixture of 50 mM diethanolamine, DEA (pH 9.0) buffer, 0.5 mM para-nitrophenylphosphate (pNPP) and the enzyme at 37° C. for 5 minutes. The same amount of 1M NaOH was added to stop the enzymatic reaction, and the amount of nitrophenol produced by the enzymatic reaction was measured. the measurement was performed by measuring the absorbance at 405 nm using a fluorescence plate reader (Victor5, Perkin-Elmer, USA). 1 unit was defined as the amount of enzyme that can produce 1 μmol of para-nitrophenol per minute at 37° C.
# In order to examine the optimum pH of the novel alkaline phosphatase, the activities thereof at a pH of 7.0 to 10.5 were compared. At a pH of 7.0 to 8.5, 50 mM Tris-HCl buffer was used, and at a pH of 7.5 to 10.5, 50 mM DEA buffer was used.
# In addition, the activities of the enzyme at various temperatures were compared. […] (see FIG. 25B). In addition, in order to examine the thermal inactivation of the enzyme, the enzyme was allowed to stand at various temperatures for 15 minutes, and then the remaining enzymatic activity was measured. […]
molecule,measurement,setting,value
COP(=S)(OC)Oc1ccc([N+](=O)[O-])cc1 [methyl parathion],fluorescence in the presence of MPH,[1],strong fluorescence was observed
N[C@@H](Cc1ccc(O)cc1)C(=O)O [tyrosine],intensity of fluorescence in the cell lysis due to TPL activity,[2],significantly increased
Oc1ccccc1 [phenol],phenol concentration at which colony fluorescence was observed,[3],more than 1 μM
same,phenol concentration at which a clear fluorescent signal was observed,"[4]; LB liquid medium, 30° C. 20 hours, fluorescence spectrometer",≥ 10 µM
same,phenol concentration range in which the genetic circuit is quantitatively activated,[4]; pGESS-EGFP(I),1 to 1000 µM
same,resistance to chloramphenicol,[5]; phenol concentration 100 μM,40 µg/mL
same,resistance to chloramphenicol,[5]; phenol concentration 1 mM,50 µg/mL
same,resistance to chloramphenicol,[5]; phenol concentration of 10 μM,≤ 20 µg/mL
same,phenol-dependent kanamycin resistance (colony formation),[6],the formation of colonies was not sensed
same,phenol-dependent tetracycline resistance (colony formation),[7],quantitative results similar to those in the case of chloramphenicol
same,concentration from which fluorescence started to be sensed,[8],1 µM
same,increase of reaction value,[9]; 2-step activity analysis,about 5 times
same,sensitivity relative to the previous sensitivity,[9]; 2-step activity analysis,about 10 times
same,concentration range of phenol which could be quantitatively analyzed,"[9]; 2-step activity analysis, M9 (acetate)",1 to 10 µM
same,phenol concentration that could be sensed by 2-step activity analysis,"[9]; M9 (acetate), 30° C. 16 hours",at least 1 μM
same,sensitivity relative to wild dmpR,[10]; mutant dmpR vs wild dmpR (pGESS-EGFP (II)),about 10 times
same,"relative sensitivity among phenol, 4-nitrophenol and 2-nitrophenol",[10]; pGESS-EGFP (III),highest
same,concentration range which could be quantitatively sensed,"[10]; pGESS-EGFP (III), mutant dmpR, M9 (acetate)",0.1 to 10 µM
alkaline phosphatase (BAP) from E. coli: alkaline phosphatase (BAP) from E. coli,thermal inactivation,[11],not inactivated
